Test results: ChEMBL document CHEMBL3046698, “Synergistic application of target structure-based alignment and 3D-QSAR study of protein tyrosine phosphatase 1B (PTP1B) inhibitors” (Med Chem Res, 2011)
Values joined by “and” are separate entries in the source; they are usually repeats but may differ in a detail not shown here. Equal values may be shown once.

biological target: T1, Tyrosine-protein phosphatase non-receptor type 1 (Homo sapiens, UniProt P18031)
T1 sequence (P18031 whole entry): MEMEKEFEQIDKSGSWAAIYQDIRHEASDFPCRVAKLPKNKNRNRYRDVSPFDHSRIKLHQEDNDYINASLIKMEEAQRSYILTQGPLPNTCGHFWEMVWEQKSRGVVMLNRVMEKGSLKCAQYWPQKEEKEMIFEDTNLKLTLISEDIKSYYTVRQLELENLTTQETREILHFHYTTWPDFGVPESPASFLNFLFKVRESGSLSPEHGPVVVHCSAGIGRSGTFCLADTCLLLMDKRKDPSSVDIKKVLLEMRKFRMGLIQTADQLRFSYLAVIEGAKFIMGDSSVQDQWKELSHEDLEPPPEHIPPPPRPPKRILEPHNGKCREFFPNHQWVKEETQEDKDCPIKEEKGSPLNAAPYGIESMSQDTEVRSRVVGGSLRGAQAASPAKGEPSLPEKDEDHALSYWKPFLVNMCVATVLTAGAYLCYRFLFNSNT
Description: Inhibition of PTP1B (unknown origin)

Q: How did the Ki turn out when `CCc1cc(C[C@H](NC(C)=O)C(=O)NCc2ccc(Cl)cc2)ccc1N(C(=O)C(=O)O)c1ccccc1C(=O)O` was run?
A: 1.2 µM

Q: `CC(=O)C(=O)N(c1ccc2ccccc2c1)c1ccccc1C(=O)O` was tested. Which Ki did it give?
A: 38.9 µM and 39 µM

Q: How did the Ki turn out when `CC(=O)C(=O)N(c1ccccc1C(=O)O)c1cccc2ccccc12` was run?
A: 24 µM

Q: How did the Ki turn out when `CC(=O)C(=O)N(c1ccccc1C(=O)O)c1cccc(C)c1C` was run?
A: 93.3 µM and 93 µM

Q: With `CC(=O)C(=O)N(c1ccccc1C(=O)O)c1cccc2c1CCCC2` as the molecule, how does the Ki read?
A: 74.1 µM and 74 µM

Q: With `COC(=O)c1c(O)cccc1OCCCCNC(=O)[C@H](Cc1ccc(OC(C(=O)O)C(=O)NC2CC2)cc1)NC(=O)OC(C)(C)C` (stereo partly specified) as the molecule, how does the Ki read?
A: 8.51 µM

Q: How did the Ki turn out when `COC(=O)c1c(O)cccc1OCCCCNC(=O)C(Cc1ccc(N(CC(C(=O)O)c2ccccc2)C(=O)C(=O)O)cc1)NC(=O)OC(C)(C)C` (stereo unspecified) was run?
A: 15.1 µM and 15.2 µM

Q: With `COC(=O)c1c(O)cccc1OCCCCNC(=O)[C@H](Cc1ccc(OC(C(N)=O)C(=O)O)cc1)NC(=O)OC(C)(C)C` (stereo partly specified) as the molecule, how does the Ki read?
A: 13.8 µM

Q: For `CC(=O)C(=O)N(c1ccccc1/C=C/C(N)=O)c1ccccc1C(=O)O`, which Ki is on record?
A: 11 µM

Q: Which Ki does the source give for `CCc1cc(C[C@H](NC(C)=O)C(=O)NCc2ccc(OC)cc2)ccc1N(C(=O)C(=O)O)c1ccccc1C(=O)O` here?
A: 4.79 µM and 4.7 µM

Q: `CCc1cc(C[C@H](NC(C)=O)C(=O)NCCCCC(=O)NC(Cc2ccccc2)C(N)=O)ccc1N(C(=O)C(=O)O)c1ccccc1C(=O)O` (stereo partly specified) was tested. Which Ki did it give?
A: 1.29 µM and 1.3 µM

Q: `CCc1cc(C[C@H](NC(C)=O)C(=O)NCCCCC(=O)NCCc2ccccc2)ccc1N(C(=O)C(=O)O)c1ccccc1C(=O)O` was tested. Which Ki did it give?
A: 3.39 µM and 3.4 µM

Q: `CCc1ccccc1N(C(=O)C(C)=O)c1ccccc1C(=O)O` was tested. Which Ki did it give?
A: 60.3 µM and 60 µM

Q: For `CC(=O)C(=O)N(c1ccccc1C(=O)O)c1ccccc1N1CCCCC1`, which Ki is on record?
A: 14.1 µM and 14 µM

Q: Which Ki does the source give for `CCc1cc(C[C@H](NC(C)=O)C(=O)N[C@H](CCSC)C(=O)O)ccc1N(C(=O)C(=O)O)c1ccccc1C(=O)O` here?
A: 1.74 µM and 1.7 µM

Q: `COC(=O)c1c(O)cccc1OCCCCNC(=O)[C@H](Cc1ccc(OC(C)C(=O)O)c(C(=O)O)c1)NC(=O)[C@H](Cc1ccccc1)NC(=O)OC(C)(C)C` (stereo partly specified) was tested. Which Ki did it give?
A: 0.162 µM

Q: With `CCC(CC(=O)O)N(C(=O)C(=O)O)c1ccc(CC(NC(=O)OC(C)(C)C)C(=O)NCCCCOc2cccc(O)c2C(=O)OC)cc1` (stereo unspecified) as the molecule, how does the Ki read?
A: 1.82 µM and 1.8 µM

Q: How did the Ki turn out when `CC(=O)C(=O)N(c1ccccc1CCO)c1ccccc1C(=O)O` was run?
A: 17 µM

Q: Which Ki does the source give for `CC(=O)C(=O)N(c1ccccc1C(=O)O)c1cccc2ccc(O)cc12` here?
A: 17 µM

Q: How did the Ki turn out when `CC(=O)C(=O)N(c1ccccc1C(=O)O)c1ccccc1C(C)C` was run?
A: 35.5 µM and 35 µM

Q: Which Ki does the source give for `CC(=O)C(=O)N(c1ccccc1Cc1ccccc1)c1ccccc1C(=O)O` here?
A: 24 µM
